Data as given in patent US4431640A, “Process for inducing anabolic and androgenic activity in animals” (Roussel Uclaf, priority 1980, dated 1984).

How the values were obtained:
androgen receptor = target: T1, androgen receptor (Rattus norvegicus, UniProt P15207); test: androgenic activity by hormonal receptor method (displacement of tritied R from prostate cytosol); assay type: binding, rats; conditions: castrated male rat prostate cytosol, incubated at 0° C. for 2 hours, testosterone = 100
T1 construct: The prostate was removed from male rats castrated 24 hours earlier and it was homogenized; from tissue; host or cells: prostate cytosol (105,000 g supernatant) of male rats castrated 24 hours earlier
T1 sequence (P15207 1-902): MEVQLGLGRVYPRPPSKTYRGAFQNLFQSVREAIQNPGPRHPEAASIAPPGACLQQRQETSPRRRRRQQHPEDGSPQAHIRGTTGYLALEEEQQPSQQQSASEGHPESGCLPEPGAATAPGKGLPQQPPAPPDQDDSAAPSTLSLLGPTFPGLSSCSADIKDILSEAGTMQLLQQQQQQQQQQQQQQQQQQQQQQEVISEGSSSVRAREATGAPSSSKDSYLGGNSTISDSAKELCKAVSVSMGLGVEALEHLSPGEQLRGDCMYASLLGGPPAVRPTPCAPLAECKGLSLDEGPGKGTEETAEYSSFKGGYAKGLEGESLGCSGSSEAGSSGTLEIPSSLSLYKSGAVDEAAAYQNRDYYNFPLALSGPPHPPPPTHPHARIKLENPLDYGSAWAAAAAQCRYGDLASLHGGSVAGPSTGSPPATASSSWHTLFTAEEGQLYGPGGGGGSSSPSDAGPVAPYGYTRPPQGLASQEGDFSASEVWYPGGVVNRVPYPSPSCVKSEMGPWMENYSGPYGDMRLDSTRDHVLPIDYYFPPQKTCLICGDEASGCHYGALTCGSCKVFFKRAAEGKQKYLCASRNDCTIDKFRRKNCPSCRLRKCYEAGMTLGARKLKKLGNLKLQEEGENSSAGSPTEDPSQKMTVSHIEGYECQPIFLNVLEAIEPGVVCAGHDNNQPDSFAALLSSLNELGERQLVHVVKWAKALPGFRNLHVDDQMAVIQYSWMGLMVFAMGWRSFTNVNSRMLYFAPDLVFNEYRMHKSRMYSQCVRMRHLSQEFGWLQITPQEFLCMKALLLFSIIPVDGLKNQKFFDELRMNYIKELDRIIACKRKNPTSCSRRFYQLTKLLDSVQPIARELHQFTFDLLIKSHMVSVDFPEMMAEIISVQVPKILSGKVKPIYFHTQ
Protocol: The androgenic activity of the compound of Example 1 and 11β-propyl-17α-methyl-Δ^4,9 -estradiene-17β-ol-3-one (compound A) were compared by the hormonal receptor method of Raynaud et al [J. Ster. Biochem., Vol. 6 (1975), p. 615-622]. The prostate was removed from male rats castrated 24 hours earlier and it was homogenized in a buffered 10 mmole tromethamine solution containing 0.25 M of saccharose and a pH of 7.4 with hydrochloric acid. The homogenate was centrifuged at 105,000 g for one hour and the liquid surnageant or "cytosol" was adjusted to obtain a 1/5 (weight/volume) dilution.
The radioactivity of tritied product was determined after about 2 hours in the receptor by the technique of carbon-dextran (1.25%-0.625%) absorption. […] B/T max. is the percentage of tied tritied R product when the compound is not added. B/T min. is the percentage of tied tritied product R when the maximum amount of cold product R is added. […] The relative affinity of the test product or ARL was determined using the formula [formula]

calves of the FFPN race = test: weight gain test in calves after percutaneous treatment; assay type: in vivo
Protocol: This test was effected with groups of calves of the FFPN race and all groups received the same amount of feed. The control group were untreated and the other group received percutaneously on day J and J+7 200 mg of the compound of Example 1. The weights of the animals were determined 7 days before the treatment (J-7), on the day of treatment (J), on the day of the second treatment (J+7) and one week after the second treatment (J+14) and the results are reported in the following Table.

Row | Compound | relative affinity (ARL) (androgen receptor) | average weight gain (calves of the FFPN race; 7 days after the test, J 14 to J 21, 200 mg percutaneously on J and J+7) | Average weight of calves (calves of the FFPN race; day J + 7, day of second treatment, 200 mg percutaneously on J and J+7) | Average weight of calves (calves of the FFPN race; day J + 14, one week after second treatment, 200 mg percutaneously on J and J+7) | Average weight of calves (calves of the FFPN race; day J - 7, 7 days before the treatment (baseline)) | Average weight of calves (calves of the FFPN race; day J, day of first treatment (200 mg percutaneously)) | average weight gain (calves of the FFPN race; table total (J to J + 14), 200 mg percutaneously on J and J+7)
1 | C[C@H]1C[C@@]2(C)[C@@H](CC[C@]2(C)O)[C@@H]2CCC3=CC(=O)CCC3=C21 [Example 1, 11β,17α-dimethyl-Δ^4,9-estradiene-17β-ol-3-one] | 90 | 8.63 kg | 60.47 kg | 70.67 kg | 45.50 kg | 52.30 kg | 18.37 kg
2 | CCC[C@H]1C[C@@]2(C)[C@@H](CC[C@]2(C)O)[C@@H]2CCC3=CC(=O)CCC3=C12 [product A, 11β-propyl-17α-methyl-Δ^4,9-estradiene-17β-ol-3-one, reference compound] | 22 |  |  |  |  |  | 
